Structures can show the parent of a compound that is named as a salt. Marks after values point to notes of the source that are not given here. A value given as a limit tells only on which side of the number the result lay.

From article PMC9230671, “Fluorochrome Selection for Imaging Intraoperative Ovarian Cancer Probes” (Pharmaceuticals, 2022) come the findings set out here.

One data set deals with T1, COX-1 (Ovis aries, UniProt P05979).
T1 construct: purchased Cayman Chemicals (bought through Sigma-Aldrich) 560131
T1 sequence (P05979 25-600): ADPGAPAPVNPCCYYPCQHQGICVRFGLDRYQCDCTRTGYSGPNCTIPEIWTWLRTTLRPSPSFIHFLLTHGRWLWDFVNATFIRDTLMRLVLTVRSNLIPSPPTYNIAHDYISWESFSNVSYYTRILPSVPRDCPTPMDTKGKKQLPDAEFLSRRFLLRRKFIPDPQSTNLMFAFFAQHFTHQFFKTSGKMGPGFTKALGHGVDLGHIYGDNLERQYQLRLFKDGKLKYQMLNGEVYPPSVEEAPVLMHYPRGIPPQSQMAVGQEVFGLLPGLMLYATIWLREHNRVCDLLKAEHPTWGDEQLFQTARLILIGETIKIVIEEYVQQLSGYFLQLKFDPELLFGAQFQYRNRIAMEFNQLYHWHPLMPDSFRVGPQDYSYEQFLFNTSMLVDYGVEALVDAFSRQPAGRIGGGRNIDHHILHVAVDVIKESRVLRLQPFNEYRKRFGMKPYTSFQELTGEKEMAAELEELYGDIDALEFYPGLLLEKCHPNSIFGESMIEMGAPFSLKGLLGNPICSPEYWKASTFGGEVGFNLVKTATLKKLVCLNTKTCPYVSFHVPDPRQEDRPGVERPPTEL
Briefly: COX-1 inhibition, COX (ovine/human) inhibitor screening assay kit. The conditions noted are these: for inhibition at 50 µM: at 50 µM compound final concentration, read-out: COX-1 % inhib. The data set is classed as biochemical. Here is the method: (§1) Cell culture reagents were purchased from Euroclone (Milan, Italy). COX (ovine/human) inhibitor screening assay kit (Catalog No. 560131, Cayman Chemicals, Ann Arbor, MI, USA) was purchased from Sigma-Aldrich, Burlington, MA, USA. […] The other reagents were purchased from Sigma-Aldrich, Burlington, MA, USA.
(§2) The COX-1/2 inhibition screening experiments were carried out according to the manufacturer’s instructions. The plate was incubated for 60 min at r.t. under shaking and read with the Tecan Infinite 200 Microplate Reader at λ = 405 nm.
(§3) The graph between percent inhibition of the enzyme and corresponding concentration of the compound provided IC50 values for the probe compounds.

Another data set concerns the target T2, COX-2 (Homo sapiens, UniProt P35354).
T2 construct: purchased Cayman Chemicals (bought through Sigma-Aldrich) 560131
T2 sequence (P35354 18-604): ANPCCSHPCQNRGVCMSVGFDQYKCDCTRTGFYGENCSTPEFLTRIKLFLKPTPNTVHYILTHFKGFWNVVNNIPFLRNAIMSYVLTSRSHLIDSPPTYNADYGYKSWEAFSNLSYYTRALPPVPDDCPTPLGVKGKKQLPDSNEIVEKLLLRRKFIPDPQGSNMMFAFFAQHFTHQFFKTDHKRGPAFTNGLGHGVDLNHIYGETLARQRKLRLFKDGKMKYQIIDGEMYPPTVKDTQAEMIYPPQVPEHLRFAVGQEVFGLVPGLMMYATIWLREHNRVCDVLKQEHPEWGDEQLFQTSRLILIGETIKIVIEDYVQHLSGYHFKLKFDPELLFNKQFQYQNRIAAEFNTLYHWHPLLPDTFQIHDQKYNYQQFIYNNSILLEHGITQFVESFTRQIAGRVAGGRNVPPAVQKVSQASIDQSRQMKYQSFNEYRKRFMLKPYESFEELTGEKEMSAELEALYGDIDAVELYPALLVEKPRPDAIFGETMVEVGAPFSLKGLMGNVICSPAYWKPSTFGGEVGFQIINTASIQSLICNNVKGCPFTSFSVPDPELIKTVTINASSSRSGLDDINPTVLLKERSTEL
Put plainly: COX-2 inhibition, COX (ovine/human) inhibitor screening assay kit. The note with it: for COX-2 inhibitory activity (in words): up to 50 µM final concentration. It is filed as biochemical. The procedure: as §1, §2, §3

Data set [1] in a line: Fluorescence property measurements (absorption/emission spectra). The data set is classed as physicochemical. Further details: Stokes Shift: unit not given here. The procedure: The λabs and λem, of the target compounds were measured in aqueous solution (phosphate-buffered saline solution, PBS) at the concentration of 10^−5 M (Table 1).
Fluorescence spectra of all target compounds were determined in PBS and EtOH solutions (Table 1) with a Tecan Infinite 200 Microplate Reader. In all experiments, the excitation and the emission bandpass were set at λ = 5 nm. The emission spectra were obtained from λ = 280 to 850 nm, with excitation set at the appropriate excitation wavelength. Absorption spectra were recorded with a Shimadzu UV-1800 spectrophotometer.

As to `CCN1/C(=C/C=C/C=C/C=C/C2=[N+](CCCCCC(=O)NCCCCNC(=O)Cc3onc(-c4ccc(OC)cc4)c3-c3ccc(OC)cc3)c3ccc4ccccc4c3C2(C)C)C(C)(C)c2c1ccc1ccccc21` (as salt: chloride) [23 (MSA14), 3-(6-(4-(2-(3,4-Bis(4-methoxyphenyl)isoxazole-5-yl)acetamido)butyl)amino-6-oxohexyl)-2-[7-(1,3-dihydro-1,1-dimethyl-3-ethyl-2H-benz[e]indolin-2-yl-idene)-1,3,5-heptatrienyl]-1,1-dimethyl-3-(6-carboxilato-hexyl)-1H-benz[e]indolium chloride], the melting point is 220 °C (dec.).
As for `COc1ccc(-c2noc(CC(=O)NCCCCNS(=O)(=O)c3cccc4c(N(C)C)cccc34)c2-c2ccc(OC)cc2)cc1` [Compound 3a, 2-[3,4-Bis(4-methoxyphenyl)isoxazol-5-yl]-N-{4-[(5-dimethylaminonaphthalene)-1-sulfonamido]butyl}acetamide], the melting point was in the range of 69 to 71 °C. For the same molecule, on COX-1, the “COX-1 inhibitory activity (in words)” value was “almost inactive”, the IC50 is above 50 µM and the inhibition at 50 µM was 45%. At COX-2, the IC50 was above 50 µM and the “COX-2 inhibitory activity (in words)” value is “almost inactive”. Moreover, in data set [1] (PBS solution, 10^−5 M), the “Stokes Shift” value is recorded as 264, the λabs worked out at 230 nm and the λem worked out at 494 nm.
The molecule `COc1ccc(-c2noc(CC(=O)Nc3ccc(NS(=O)(=O)c4cccc5c(N(C)C)cccc45)cc3)c2-c2ccc(OC)cc2)cc1` [Compound 3b, 2-[3,4-Bis(4-methoxyphenyl)isoxazol-5-yl]-N-{4-[(5-dimethylaminonaphthalene)-1-sulfonamido]phenyl}acetamide] registered a melting point of 120 to 122 °C. Also, at COX-1, the IC50 was found to be 0.05 µM, the “SI (selectivity index)” value is given as above 1000 and the inhibition at 50 µM was 44%. The molecule further came in with a half-maximal inhibitory concentration (IC50) against COX-2 above 50 µM. Moreover, in data set [1] (PBS solution, 10^−5 M), the “Stokes Shift” value worked out at 154, the λabs stood at 360 nm and the λem is reported as 514 nm.
On to `COc1ccc(-c2noc(CC(=O)Nc3ccc(-c4ccc(NS(=O)(=O)c5cccc6c(N(C)C)cccc56)cc4)cc3)c2-c2ccc(OC)cc2)cc1` [Compound 3c, 2-[3,4-Bis(4-methoxyphenyl)isoxazol-5-yl]-N-{4-[(5-dimethylaminonaphthalene)-1-sulfonamido]biphenyl}acetamide], for which the melting point was 240 to 241 °C. Also, on COX-1, the IC50 was determined as 0.06 µM, the “SI (selectivity index)” value is given as above 833 and the inhibition at 50 µM was found to be 71%. For the same molecule, at COX-2, the IC50 was above 50 µM. In addition, in data set [1] (PBS solution, 10^−5 M), the “Stokes Shift” value stood at 217, the λabs was found to be 287 nm and the λem is recorded as 504 nm.
In turn, `COc1ccc(-c2noc(CC(=O)NCCCCCCNS(=O)(=O)c3cccc4c(N(C)C)cccc34)c2-c2ccc(OC)cc2)cc1` [Compound 6a] showed a melting point of 66 to 69 °C. Further, on COX-1, the IC50 came to 12 µM, the “SI (selectivity index)” value is on record as above 4 and the inhibition at 50 µM amounted to 74%. Further, on COX-2, the IC50 is above 50 µM. For the same molecule, in data set [1] (ethanol (10^−5 M)), the “Stokes Shift” value is listed as 273, the λabs is recorded as 248 ^b nm and the λem is on record as 521 ^b nm.
`COc1ccc(-c2noc(CC(=O)NCCCCCCCCCCCCNS(=O)(=O)c3cccc4c(N(C)C)cccc34)c2-c2ccc(OC)cc2)cc1` [Compound 6b, 2-[3,4-Bis(4-methoxyphenyl)-5-yl]-N-{4-[(5-dimethylaminonaphthalene)-1-sulfonamido]dodecyl}acetamide] registered a melting point of 126 to 129 °C. Further, at COX-1, the midpoint of inhibition, the IC50, lay at 0.1 µM; the “SI (selectivity index)” value is above 500; the inhibition at 50 µM is 71%. The molecule also had an IC50 on COX-2 above 50 µM. Further, in data set [1] (PBS solution, 10^−5 M), the “Stokes Shift” value worked out at 222, the λabs turned out to be 270 nm and the λem is reported as 492 nm.
Consider `COc1ccc(-c2noc(CC(=O)Nc3ccc(NC(=O)CCCCCCCCCCNS(=O)(=O)c4cccc5c(N(C)C)cccc45)cc3)c2-c2ccc(OC)cc2)cc1` [Compound 9], for which the melting point lay in the range of 140 to 143 °C. Besides, on COX-1, the IC50 is 0.7 µM, the “SI (selectivity index)” value is on record as above 71 and the inhibition at 50 µM was found to be 83%. The half-inhibitory concentration (IC50) against COX-2 was above 50 µM. Also, in data set [1] (PBS solution, 10^−5 M), the “Stokes Shift” value worked out at 222, the λabs is given as 274 nm and the λem is 496 nm.
Consider `COc1ccc(-c2noc(CC(=O)NCCCCNc3ccc([N+](=O)[O-])c4nonc34)c2-c2ccc(OC)cc2)cc1` [Compound 13a, 2-(3,4-Bis(4-methoxyphenyl)isoxazol-5-yl)-N-(4-((7-nitrobenzo[c][1,2,5]oxadiazol-4-yl)amino)butyl)acetamide], for which the melting point was 165 °C (dec.). For the same molecule, at COX-1, the IC50 was above 50 µM and the inhibition at 50 µM is 0%. Moreover, the IC50 against COX-2 is above 50 µM. Also, in data set [1] (PBS solution, 10^−5 M), the “Stokes Shift” value stood at 82, the λabs is 482 nm and the λem is recorded as 564 nm.
Consider `COc1ccc(-c2noc(CC(=O)NCCCCCCNc3ccc([N+](=O)[O-])c4nonc34)c2-c2ccc(OC)cc2)cc1` [Compound 13b, 2-(3,4-Bis(4-methoxyphenyl)isoxazol-5-yl)-N-(6-((7-nitrobenzo[c][1,2,5]oxadiazol-4-yl)amino)hexyl)acetamide], for which, on COX-1, the IC50 was above 50 µM and the inhibition at 50 µM amounted to 26%. Further, the half-inhibitory concentration (IC50) against COX-2 was above 50 µM. Moreover, in data set [1] (PBS solution, 10^−5 M), the “Stokes Shift” value came to 64, the λabs was determined as 490 nm and the λem turned out to be 554 nm.
As to `COc1ccc(-c2noc(CC(=O)NCCCCCCCCCCCCNc3ccc([N+](=O)[O-])c4nonc34)c2-c2ccc(OC)cc2)cc1` [Compound 13c, 2-(3,4-Bis(4-methoxyphenyl)isoxazol-5-yl)-N-(12-((7-nitrobenzo[c][1,2,5]oxadiazol-4-yl)amino)dodecyl)acetamide], on COX-1, the IC50 was above 50 µM and the inhibition at 50 µM amounted to 28%. Also, the half-inhibitory concentration (IC50) against COX-2 is above 50 µM. In addition, in data set [1] (PBS solution, 10^−5 M), the “Stokes Shift” value is 55, the λabs stood at 495 nm and the λem worked out at 550 nm.
Take `CCCN1C(=O)c2cccc3c(NCCCCCCNC(=O)Cc4onc(-c5ccc(OC)cc5)c4-c4ccc(OC)cc4)ccc(c23)C1=O` [Compound 17a, 2-(3,4-Bis(4-methoxyphenyl)isoxazol-5-yl)-N-(6-((1,3-dioxo-2-propyl-2,3-dihydro-1H-benzo[de]isoquinolin-6-yl)amino)hexyl)acetamide]: the melting point fell in the range of 110 to 111 °C. At COX-1, the IC50 is 0.08 µM, the “SI (selectivity index)” value is above 625 and the inhibition at 50 µM came out at 51%. Moreover, on COX-2, the IC50 is above 50 µM and the “COX-2 inhibitory activity (in words)” value is “almost inactive”. Moreover, in data set [1] (PBS solution, 10^−5 M), the “Stokes Shift” value was 96, the λabs is listed as 450 nm and the λem is 546 nm.
